Test results as given in patent publication US10131652B2, “Pyrimidinyloxy benzene derivatives as herbicides” (E. I. DU PONT DE NEMOURS AND COMPANY, priority 2014, dated 2018).
Like-named read-outs stand apart in the source and are kept apart here.

Key:
Type in all cases: in vivo
[1] = system: Italian ryegrass (Lolium multiflorum); assay: Test D pre-/postemergence plant response; details: Lolium multiflorum, pre-emergence, Preemergence, scale 0 to 100 (0 no effect, 100 complete control), read-out: Plant response rating, Ryegrass, Italian
How it was run: (§1)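 Each compound, in non-phytotoxic solvent with surfactant, was sprayed onto soil right after sowing or onto young plants 2 to 18 cm tall. After 13 to 15 days under greenhouse conditions, effects were judged visually against controls on a 0 (no effect) to 100 (complete control) scale.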

[2] = system: corn (Zea mays); assay: Test D pre-/postemergence plant response; details: Zea mays; for Corn plant response rating (crop injury, 0 = no effect, 100 = complete kill) at 62 g/ha: 62 g ai/ha
How it was run: as §1

[3] = system: blackgrass (Alopecurus myosuroides); assay: Test D pre-/postemergence plant response; details: Alopecurus myosuroides; for pest or weed control at 16 g/ha: 16 g ai/ha; for pest or weed control at 31 g/ha: 31 g ai/ha; for pest or weed control at 62 g/ha: 62 g ai/ha; for pest or weed control at 125 g/ha: 125 g ai/ha
How it was run: as §1

[4] = system: giant foxtail (Setaria faberii); assay: Test D pre-/postemergence plant response; details: Setaria faberi; for pest or weed control at 16 g/ha: 16 g ai/ha; for pest or weed control at 31 g/ha: 31 g ai/ha; for pest or weed control at 62 g/ha: 62 g ai/ha; for pest or weed control at 125 g/ha: 125 g ai/ha
How it was run: as §1

[5] = system: lambsquarters (Chenopodium album); assay: Test D pre-/postemergence plant response; details: Chenopodium album; for pest or weed control at 31 g/ha: 31 g ai/ha; for pest or weed control at 62 g/ha: 62 g ai/ha; for pest or weed control at 125 g/ha: 125 g ai/ha
How it was run: as §1

[6] = system: barnyardgrass (Echinochloa crus-galli); assay: Test B pre-/postemergence plant response; details: for pest or weed control at 31 g/ha: 31 g ai/ha
How it was run: (§2)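 Scoring used a 0–100 scale (100 = complete control) by visual comparison with untreated plants after approximately 10 days in the greenhouse. Compounds, in surfactant-containing non-phytotoxic solvent, were sprayed onto soil at planting or onto 2–10 cm seedlings.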

[7] = system: wheat (Triticum aestivum); assay: Test B pre-/postemergence plant response; details: Triticum aestivum, post-emergence, 240 h, read-out: Plant response rating, Wheat
How it was run: as §2

[8] = system: pigweed (Amaranthus retroflexus); assay: Test B pre-/postemergence plant response; details: for pest or weed control at 31 g/ha: 31 g ai/ha
How it was run: as §2

[9] = system: corn (Zea mays); assay: Test B pre-/postemergence plant response; details: Zea mays, post-emergence, 240 h
How it was run: as §2

[10] = system: giant foxtail (Setaria faberii); assay: Test B pre-/postemergence plant response; details: for pest or weed control at 31 g/ha: 31 g ai/ha
How it was run: as §2

[11] = post-emergence, Postemergence, scale 0 to 100 (0 no effect, 100 complete control), read-out: Blackgrass plant response rating
[12] = post-emergence, Postemergence, scale 0 to 100, 0 no effect, 100 complete control, read-out: Plant response rating, Blackgrass
[13] = pre-emergence, Preemergence, scale 0 to 100 (0 no effect, 100 complete control), read-out: Plant response rating, Blackgrass
[14] = post-emergence, Postemergence, scale 0 to 100 (0 no effect, 100 complete control), read-out: Foxtail, Giant plant response rating
[15] = post-emergence, Postemergence, scale 0 to 100, 0 no effect, 100 complete control, read-out: Plant response rating, Foxtail, Giant
[16] = pre-emergence, Preemergence, scale 0 to 100 (0 no effect, 100 complete control), read-out: Plant response rating, Foxtail, Giant
[17] = post-emergence, Postemergence, scale 0 to 100, 0 no effect, 100 complete control, read-out: Plant response rating, Lambsquarters
[18] = pre-emergence, Preemergence, scale 0 to 100 (0 no effect, 100 complete control), read-out: Plant response rating, Lambsquarters
[19] = Preemergence, 125 g ai/ha, 0 to 100 scale (0 no effect, 100 complete control)
[20] = 125 g ai/ha, postemergence, 0 to 100 scale, 0 no effect, 100 complete control
[21] = Postemergence, 31 g ai/ha, 0 to 100 scale (0 no effect, 100 complete control)

## Fc1cccc(Oc2ncc(Br)cn2)c1-c1cc(C(F)F)no1 [Compound 145, 5-bromo-2-[2-[3-(difluoromethyl)-5-isoxazolyl]-3-fluorophenoxy]pyrimidine]
[1]; 31 g ai/ha
  pest or weed control at 31 g/ha: 35%
[1]; 62 g ai/ha
  pest or weed control at 62 g/ha: 70%
[2]; post-emergence, Postemergence, 16 g ai/ha, scale 0 to 100 (0 no effect, 100 complete control), read-out: Corn plant response rating
  plant injury at 16 g/ha: 5%
[2]; post-emergence, Postemergence, 31 g ai/ha, scale 0 to 100 (0 no effect, 100 complete control), read-out: Corn plant response rating
  plant injury at 31 g/ha: 5%
[2]; post-emergence, Postemergence, scale 0 to 100, 0 no effect, 100 complete control
  Corn plant response rating (crop injury, 0 = no effect, 100 = complete kill) at 62 g/ha: 5%
[2]; post-emergence, Postemergence, 125 g ai/ha, scale 0 to 100, 0 no effect, 100 complete control
  Corn plant response rating (crop injury, 0 = no effect, 100 = complete kill) at 125 g/ha: 10%
[2]; pre-emergence, Preemergence, 125 g ai/ha, read-out: Plant response rating (scale 0 to 100), Corn
  plant injury at 125 g/ha: 45%
[2]; pre-emergence, Preemergence, 16 g ai/ha, scale 0 to 100 (0 no effect, 100 complete control)
  Corn plant response rating (crop injury, 0 = no effect, 100 = complete kill) at 16 g/ha: 0%
[2]; pre-emergence, Preemergence, 31 g ai/ha, scale 0 to 100 (0 no effect, 100 complete control)
  Corn plant response rating (crop injury, 0 = no effect, 100 = complete kill) at 31 g/ha: 5%
[2]; pre-emergence, Preemergence, scale 0 to 100 (0 no effect, 100 complete control)
  Corn plant response rating (crop injury, 0 = no effect, 100 = complete kill) at 62 g/ha: 10%
[3]; [11]
  pest or weed control at 16 g/ha: 15%
  pest or weed control at 31 g/ha: 20%
[3]; [12]
  pest or weed control at 62 g/ha: 25%
  pest or weed control at 125 g/ha: 80%
[3]; pre-emergence, Preemergence, read-out: Plant response rating (scale 0 to 100), Blackgrass
  pest or weed control at 125 g/ha: 95%
[3]; [13]
  pest or weed control at 16 g/ha: 15%
  pest or weed control at 31 g/ha: 90%
  pest or weed control at 62 g/ha: 95%
[4]; [14]
  pest or weed control at 16 g/ha: 5%
  pest or weed control at 31 g/ha: 10%
[4]; [15]
  pest or weed control at 62 g/ha: 20%
  pest or weed control at 125 g/ha: 20%
[4]; pre-emergence, Preemergence, read-out: Plant response rating (scale 0 to 100), Foxtail, Giant
  pest or weed control at 125 g/ha: 100%
[4]; [16]
  pest or weed control at 16 g/ha: 85%
  pest or weed control at 31 g/ha: 100%
  pest or weed control at 62 g/ha: 100%
[5]; post-emergence, Postemergence, scale 0 to 100 (0 no effect, 100 complete control), read-out: Lambsquarters plant response rating
  pest or weed control at 31 g/ha: 85%
[5]; [17]
  pest or weed control at 62 g/ha: 85%
  pest or weed control at 125 g/ha: 95%
[5]; pre-emergence, Preemergence, read-out: Plant response rating (scale 0 to 100), Lambsquarters
  pest or weed control at 125 g/ha: 100%
[5]; pre-emergence, Preemergence, 16 g ai/ha, scale 0 to 100 (0 no effect, 100 complete control), read-out: Plant response rating, Lambsquarters
  pest or weed control at 16 g/ha: 100%
[5]; [18]
  pest or weed control at 31 g/ha: 100%
  pest or weed control at 62 g/ha: 100%
[6]; Echinochloa crus-galli, post-emergence, 240 h, 125 g ai/ha, postemergence, 0 to 100 scale, 0 no effect, 100 complete control, read-out: Plant response rating, Barnyardgrass
  pest or weed control at 125 g/ha: 100%
[6]; Echinochloa crus-galli, post-emergence, 240 h, Postemergence, 0 to 100 scale (0 no effect, 100 complete control), read-out: Plant response rating, Barnyardgrass
  pest or weed control at 31 g/ha: 40%
[6]; Echinochloa crus-galli, pre-emergence, 240 h, Preemergence, 0 to 100 scale where 0 is no effect and 100 is complete control, read-out: Plant response rating, Barnyardgrass
  pest or weed control at 31 g/ha: 70%
[6]; [19]
  Barnyardgrass plant response rating: 100
[7]; [20]
  plant injury at 125 g/ha: 70%
[7]; [21]
  plant injury at 31 g/ha: 20%
[8]; Amaranthus retroflexus, post-emergence, 240 h, 125 g ai/ha, postemergence, 0 to 100 scale, 0 no effect, 100 complete control, read-out: Plant response rating, Pigweed
  pest or weed control at 125 g/ha: 100%
[8]; Amaranthus retroflexus, post-emergence, 240 h, Postemergence, 0 to 100 scale (0 no effect, 100 complete control), read-out: Plant response rating, Pigweed
  pest or weed control at 31 g/ha: 100%
[8]; Amaranthus retroflexus, pre-emergence, 240 h, Preemergence, 0 to 100 scale where 0 is no effect and 100 is complete control, read-out: Plant response rating, Pigweed
  pest or weed control at 31 g/ha: 100%
[8]; [19]
  Pigweed plant response rating: 100
[9]; [20]
  Corn plant response rating (crop injury, 0 = no effect, 100 = complete kill) at 125 g/ha: 70%
[9]; [21]
  Corn plant response rating (crop injury, 0 = no effect, 100 = complete kill) at 31 g/ha: 30%
[10]; [19]
  Foxtail, Giant plant response rating: 100
[10]; Setaria faberi, post-emergence, 240 h, 125 g ai/ha, postemergence, 0 to 100 scale, 0 no effect, 100 complete control, read-out: Plant response rating, Foxtail, Giant
  pest or weed control at 125 g/ha: 90%
[10]; Setaria faberi, post-emergence, 240 h, Postemergence, 0 to 100 scale (0 no effect, 100 complete control), read-out: Plant response rating, Foxtail, Giant
  pest or weed control at 31 g/ha: 70%
[10]; Setaria faberi, pre-emergence, 240 h, Preemergence, 0 to 100 scale where 0 is no effect and 100 is complete control, read-out: Plant response rating, Foxtail, Giant
  pest or weed control at 31 g/ha: 90%
